In patent US20260216280A1, “COMPOSITION FOR PREVENTING AND TREATING ISCHEMIC CEREBROVASCULAR DISEASE COMPRISING GINTONIN” (Dongguk University Industry-Academic Cooperation Foundation, priority 2022, published 2026):

System: HBMEC (Human Brain Microvascular Endothelial Cell)
Experiment: Nitric oxide production in HBMEC, gintonin pretreatment before NOS inhibitor
Assay type: cell-based
Conditions: 100 uM synthase inhibitor, 1 h, vs DMSO only
Description: First of all, HBMEC (Human Brain Microvascular Endothelial Cell) or imHBMEC (immortalized Human Brain Microvascular Endothelial Cell) were cultured in an appropriate culture medium under air conditions of 37° C., 5% carbon dioxide and 95% relative humidity. When the cells reached 80 to 90% confluency (average ~2 days), 10 ug/mL of gintonin was first pretreated and incubated for 1 hour, and then, a nitric oxide synthase (NOS) inhibitor was treated and incubated for another hour, then, the effect of changes in nitric oxide (NO) production was investigated. Afterwards, the concentration of nitric oxide synthase inhibitor was treated at 100 and 300 uM.

COC(=O)[C@@H](N)CCCNC(=N)N[N+](=O)[O-].Cl [synthase inhibitor] was tested, and the “reduction of nitric oxide (relative production)” value was “about 20%”.
